Literature values, collected in patent US20020072508A1, “Anti-depressant, stress suppressor and mood improver” (LIPOGEN LTD., priority 2000, published 2002).

Tested on: withdrawal symptoms associated with addiction (cigarettes, alcohol, narcotics)

## phosphatidic acid
  withdrawal symptoms associated with addiction: alleviate withdrawal symptoms
